Assay results from publication doi:10.1101/2025.09.05.674519v1 (biorxiv, 2025).
Counter-ions that a name gives are not always drawn.

Assays:
[1] = target: T1, ULK1 (recombinant human ULK1 protein 1-649, ADP-Glo) (Homo sapiens, UniProt O75385); test: ADP-Glo kinase assay; format: biochemical
T1 sequence (O75385 1-649): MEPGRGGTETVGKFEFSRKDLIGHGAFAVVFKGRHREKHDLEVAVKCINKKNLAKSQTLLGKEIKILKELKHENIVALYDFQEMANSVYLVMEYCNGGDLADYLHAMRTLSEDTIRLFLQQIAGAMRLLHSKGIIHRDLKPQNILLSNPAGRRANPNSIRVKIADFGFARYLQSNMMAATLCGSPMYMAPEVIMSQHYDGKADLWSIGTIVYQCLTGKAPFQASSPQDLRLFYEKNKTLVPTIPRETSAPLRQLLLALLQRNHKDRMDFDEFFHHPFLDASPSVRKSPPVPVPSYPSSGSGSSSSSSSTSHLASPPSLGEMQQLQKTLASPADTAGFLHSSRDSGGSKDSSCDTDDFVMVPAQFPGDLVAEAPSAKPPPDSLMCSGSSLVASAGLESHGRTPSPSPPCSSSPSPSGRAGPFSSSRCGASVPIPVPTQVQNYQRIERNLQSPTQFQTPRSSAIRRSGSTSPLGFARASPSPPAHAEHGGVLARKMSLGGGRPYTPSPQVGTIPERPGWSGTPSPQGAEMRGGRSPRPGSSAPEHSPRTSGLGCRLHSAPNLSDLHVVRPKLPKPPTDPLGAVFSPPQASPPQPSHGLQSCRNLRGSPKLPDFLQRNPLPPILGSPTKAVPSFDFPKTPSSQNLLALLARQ

[2] = target: T2, NanoLuc-ULK1 (NanoBRET) (Homo sapiens, UniProt O75385); test: NanoBRET tracer displacement in live HEK293T cells; format: cell-based
T2 sequence (O75385 1-1050): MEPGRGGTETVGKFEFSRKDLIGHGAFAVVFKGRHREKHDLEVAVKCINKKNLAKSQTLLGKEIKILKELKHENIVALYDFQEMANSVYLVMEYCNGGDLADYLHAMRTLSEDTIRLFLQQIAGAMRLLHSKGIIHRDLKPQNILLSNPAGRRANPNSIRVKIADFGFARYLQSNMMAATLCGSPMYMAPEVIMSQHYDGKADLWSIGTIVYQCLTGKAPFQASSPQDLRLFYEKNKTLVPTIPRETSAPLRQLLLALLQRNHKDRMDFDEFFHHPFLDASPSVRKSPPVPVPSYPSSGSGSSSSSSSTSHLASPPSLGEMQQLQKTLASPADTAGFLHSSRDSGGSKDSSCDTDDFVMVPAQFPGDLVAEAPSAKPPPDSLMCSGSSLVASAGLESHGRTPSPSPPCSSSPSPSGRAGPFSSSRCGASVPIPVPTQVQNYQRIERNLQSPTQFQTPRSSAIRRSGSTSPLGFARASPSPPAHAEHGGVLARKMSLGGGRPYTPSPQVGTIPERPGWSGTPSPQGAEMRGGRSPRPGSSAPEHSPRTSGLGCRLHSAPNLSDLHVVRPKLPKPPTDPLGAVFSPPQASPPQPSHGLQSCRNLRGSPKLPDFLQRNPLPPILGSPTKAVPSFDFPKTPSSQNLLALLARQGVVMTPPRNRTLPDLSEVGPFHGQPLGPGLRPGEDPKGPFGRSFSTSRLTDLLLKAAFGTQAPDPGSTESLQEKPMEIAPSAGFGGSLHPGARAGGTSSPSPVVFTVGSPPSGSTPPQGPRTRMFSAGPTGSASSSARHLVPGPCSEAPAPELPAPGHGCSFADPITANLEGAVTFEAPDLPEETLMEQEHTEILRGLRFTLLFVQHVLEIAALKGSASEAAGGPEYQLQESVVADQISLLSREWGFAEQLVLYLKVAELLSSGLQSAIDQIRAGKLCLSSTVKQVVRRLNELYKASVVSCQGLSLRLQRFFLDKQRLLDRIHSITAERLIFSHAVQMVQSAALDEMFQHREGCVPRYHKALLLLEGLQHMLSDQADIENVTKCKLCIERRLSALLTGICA

[3] = target: T3, ULK2 kinase domain (1-276) (Homo sapiens, UniProt Q8IYT8); test: biochemical; conditions: read-out: ULK2 PTS (ºC)
T3 sequence (Q8IYT8 1-276): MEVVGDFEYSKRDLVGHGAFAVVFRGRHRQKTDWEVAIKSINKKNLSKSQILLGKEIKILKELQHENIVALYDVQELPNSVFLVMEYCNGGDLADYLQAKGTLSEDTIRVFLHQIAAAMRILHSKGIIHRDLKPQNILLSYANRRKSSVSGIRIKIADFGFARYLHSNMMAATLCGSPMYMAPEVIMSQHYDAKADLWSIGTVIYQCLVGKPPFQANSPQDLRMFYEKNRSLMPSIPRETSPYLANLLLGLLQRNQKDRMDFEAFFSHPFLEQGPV

[4] = target: T4, ULK2 (recombinant human ULK2 protein 1-478, ADP-Glo) (Homo sapiens, UniProt Q8IYT8); test: biochemical
T4 sequence (Q8IYT8 1-478): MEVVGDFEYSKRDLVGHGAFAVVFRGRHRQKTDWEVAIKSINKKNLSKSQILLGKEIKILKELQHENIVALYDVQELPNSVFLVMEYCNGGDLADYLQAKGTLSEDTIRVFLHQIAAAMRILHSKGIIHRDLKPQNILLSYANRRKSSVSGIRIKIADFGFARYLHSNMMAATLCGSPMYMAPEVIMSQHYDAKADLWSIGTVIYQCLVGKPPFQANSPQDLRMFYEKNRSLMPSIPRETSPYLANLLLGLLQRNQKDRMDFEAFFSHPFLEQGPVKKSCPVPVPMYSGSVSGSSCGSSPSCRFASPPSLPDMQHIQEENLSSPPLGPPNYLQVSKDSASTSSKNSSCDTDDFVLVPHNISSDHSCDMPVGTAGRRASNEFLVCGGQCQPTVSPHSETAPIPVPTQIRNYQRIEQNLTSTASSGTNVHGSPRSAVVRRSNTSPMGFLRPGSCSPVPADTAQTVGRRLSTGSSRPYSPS

[5] = target: T5, NanoLuc-ULK2 (NanoBRET) (Homo sapiens, UniProt Q8IYT8); test: cell-based; set-up: species or system HEK293T
T5 sequence (Q8IYT8 1-1036): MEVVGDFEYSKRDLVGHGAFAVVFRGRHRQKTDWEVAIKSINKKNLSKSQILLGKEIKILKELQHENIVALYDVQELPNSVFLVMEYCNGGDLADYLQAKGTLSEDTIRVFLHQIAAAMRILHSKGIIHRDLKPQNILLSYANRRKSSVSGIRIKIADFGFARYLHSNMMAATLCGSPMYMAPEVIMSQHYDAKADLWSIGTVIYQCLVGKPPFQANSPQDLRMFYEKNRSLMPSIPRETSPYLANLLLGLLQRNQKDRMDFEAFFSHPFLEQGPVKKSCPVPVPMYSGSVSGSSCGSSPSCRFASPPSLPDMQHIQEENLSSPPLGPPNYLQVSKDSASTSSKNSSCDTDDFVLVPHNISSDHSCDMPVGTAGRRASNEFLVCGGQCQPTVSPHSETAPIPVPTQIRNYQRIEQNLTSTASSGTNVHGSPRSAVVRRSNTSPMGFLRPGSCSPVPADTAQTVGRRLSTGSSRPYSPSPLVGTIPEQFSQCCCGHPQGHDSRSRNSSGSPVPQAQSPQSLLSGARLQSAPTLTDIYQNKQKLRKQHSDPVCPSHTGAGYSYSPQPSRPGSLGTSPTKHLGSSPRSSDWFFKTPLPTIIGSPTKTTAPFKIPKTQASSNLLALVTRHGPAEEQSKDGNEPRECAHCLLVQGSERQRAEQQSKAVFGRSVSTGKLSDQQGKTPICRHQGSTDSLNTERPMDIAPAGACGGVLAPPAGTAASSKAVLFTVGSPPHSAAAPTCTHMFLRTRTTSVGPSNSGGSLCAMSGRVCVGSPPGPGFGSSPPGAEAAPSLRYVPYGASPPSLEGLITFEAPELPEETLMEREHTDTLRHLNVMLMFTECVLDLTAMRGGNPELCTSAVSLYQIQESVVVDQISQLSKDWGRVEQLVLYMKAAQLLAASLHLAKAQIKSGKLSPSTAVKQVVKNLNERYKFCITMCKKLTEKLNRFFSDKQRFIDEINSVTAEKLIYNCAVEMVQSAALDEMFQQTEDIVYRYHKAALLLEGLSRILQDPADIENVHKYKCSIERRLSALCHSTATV

[6] = target: T5, NanoLuc-ULK2 (NanoBRET); test: NanoBRET tracer displacement in live HEK293T cells; format: cell-based
[7] = target: T4, ULK2 (recombinant human ULK2 protein 1-478, ADP-Glo); test: ADP-Glo kinase assay; format: biochemical

Row | SMILES | IC50 [1] [nM] | IC50 [2] [nM] | ΔTm at 10 µM [3] [°C] | IC50 [4] [nM] | IC50 [5] [nM] | IC50 [6] [nM] | IC50 [7] [nM]
1 | O=C1CCc2cc(Nc3ncc(C(F)(F)F)c(NC4CCCC4)n3)ccc2N1 [compound 12, 6-((4-(Cyclopentylamine)-5-(trifluoromethyl)pyrimidin-2-yl)amino)-3,4-dihydroquinolin-2(1H)-one] | 25 ± 6 | > 10000 | – | – | – | – | –
2 | O=C1CCc2cc(Nc3ncc(Br)c(NC4CC4)n3)ccc2N1 [compound 7, 6-((5-Bromo-4-(cyclopropylamine)pyrimidin-2-yl)amino)-3,4-dihydroquinolin-2(1H)-one] | – | – | 2 ± 0.8 | 896 ± 92 | 1580 ± 325 | – | –
3 | O=C1Cc2cc(Nc3ncc(C(F)(F)F)c(NC4CC4)n3)ccc2N1 [compound 3, 5-((4-(Cyclopropylamine)-5-(trifluoromethyl)pyrimidin-2-yl)amino)indolin-2-one] | – | – | 3 ± 1.3 | 704 ± 63 | 1100 ± 454 | – | –
4 | O=C1CCc2cc(Nc3nccc(NC4CC4)n3)ccc2N1 [compound 8, 8] | 2330 ± 667 | > 10000 | – | – | – | – | –
5 | O=C1CCc2cc(Nc3ncc(C(F)(F)F)c(NC4CC4)n3)ccc2N1 [compound 2, 6-((4-(Cyclopropylamine)-5-(trifluoromethyl)pyrimidine-2-yl)amino)-3,4-dihydroquinoline-2(1H)-one] | – | – | – | – | – | 174 | 118 ± 34
6 | COc1cc(Nc2ncc(C(F)(F)F)c(NC3CC3)n2)cc(OC)c1OC [compound 1] | – | – | – | – | – | 172 ± 33 | 64 ± 22
7 | O=C1CCc2cc(Nc3ncc(C(F)(F)F)c(NCCCNC(=O)C4CC4)n3)ccc2N1 [compound 21, N-(3-((2-((2-Oxo-1,2,3,4-tetrahydroquinolin-6-yl)amino)-5-(trifluoromethyl)pyrimidin-4-yl)amino)propyl)cyclopropanecarboxamide] | – | – | 8 ± 0.6 | – | – | 44 ± 10 | 50 ± 12
8 | O=C1CCc2cc(Nc3ncc(C(F)(F)F)c(NCC(F)(F)F)n3)ccc2N1 [compound 14, 6-((4-((2,2,2-Trifluoroethyl)amino)-5-(trifluoromethyl)pyrimidin-2-yl)amino)-3,4 dihydroquinolin-2(1H)-one] | – | – | 4 ± 0.1 | 464 ± 90 | 1820 ± 599 | – | –
9 | O=C1CCc2cc(Nc3ncc(C(F)(F)F)c(NCCO)n3)ccc2N1 [compound 15, 6-((4-((2-Hydroxyethyl)amino)-5-(trifluoromethyl)pyrimidin-2-yl)amino)-3,4-dihydroquinolin-2(1H)-one] | – | – | 8 ± 0.1 | 980 ± 62 | 875 ± 131 | – | –
10 | NCCCNc1nc(Nc2ccc3c(c2)CCC(=O)N3)ncc1C(F)(F)F [compound 19, 6-((4-((3-Aminopropyl)amino)-5-(trifluoromethyl)pyrimidin-2-yl)amino)-3,4 dihydroquinolin-2(1H)-one·HCl] | – | – | 7.5 | 480 ± 65 | 77 ± 13 | – | –
11 | COc1cc(Nc2ncc(Br)c(NC3CC3)n2)cc(OC)c1OC [compound 6, 5-Bromo-N4-cyclopropyl-N2-(3,4,5-trimethoxyphenyl)pyrimidine-2,4-diamine] | – | – | 7 ± 0.7 | 217 ± 108 | 1470 ± 261 | – | –
